Broadly, the Ki is the equilibrium dissociation constant of an inhibitor or competing ligand from its target.

The target in this experiment is T1, recombinant human NK3 receptor (Homo sapiens, UniProt P29371).
T1 construct: expressed in transfected cells; host or cells: HEK293 cells (transient expression), membranes
T1 sequence (P29371 1-465): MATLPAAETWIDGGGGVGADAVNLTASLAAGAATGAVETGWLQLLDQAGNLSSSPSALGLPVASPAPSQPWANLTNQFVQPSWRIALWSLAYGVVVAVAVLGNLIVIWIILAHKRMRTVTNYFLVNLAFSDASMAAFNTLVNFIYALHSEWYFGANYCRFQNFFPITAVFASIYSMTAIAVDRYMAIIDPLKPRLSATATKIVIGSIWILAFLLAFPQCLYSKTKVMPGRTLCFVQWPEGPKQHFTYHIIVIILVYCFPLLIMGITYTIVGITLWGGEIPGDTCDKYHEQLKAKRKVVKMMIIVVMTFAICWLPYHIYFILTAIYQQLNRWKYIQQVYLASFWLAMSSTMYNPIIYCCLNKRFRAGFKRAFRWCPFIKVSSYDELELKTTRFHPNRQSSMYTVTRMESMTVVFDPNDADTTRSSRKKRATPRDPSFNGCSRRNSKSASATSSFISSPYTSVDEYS
Put plainly: [3H]SR142801 competition binding assay. The note with it: hNK3 receptor binding, [3H]SR142801, membranes from HEK293 cells transiently expressing recombinant human NK3 receptor. On the procedure: [^3H]SR142801 competition binding assay
hNK3 receptor binding experiment were performed using [^3H]SR142801 (Catalog No. TRK1035, specific activity: 74.0 Ci/mmol, Amersham, GE Healthcare UK limited, Buckinghamshire, UK) and membrane isolated from HEK293 cells transiently expressing recombinant human NK3 receptor. After thawing, the membrane homogenates were centrifuged at 48,000×g for 10 min at 4° C., the pellets were resuspended in the 50 mM Tris-HCl, 4 mM MnCl2, 1 μM phosphoramidon, 0.1% BSA binding buffer at pH 7.4 to a final assay concentration of 5 μg protein/well. […] At the end of the incubation, membranes were filtered onto unitfilter (96-well white microplate with bonded GF/C filter preincubated 1 h in 0.3% PEI+0.3% BSA, Packard BioScience, Meriden, Conn.) with a Filtermate 196 harvester (Packard BioScience) and washed 4 times with ice-cold 50 mM Tris-HCl, pH 7.4 buffer. Nonspecific binding was measured in the presence of 10 μM SB222200 for both radioligands. The radioactivity on the filter was counted (5 min) on a Packard Top-count microplate scintillation counter with quenching correction after addition of 45 μl of microscint 40 (Canberra Packard S. A., Zürich, Switzerland) and shaking for 1 h. Inhibition curves were fitted according to the Hill equation: y=100/(1+(x/IC50)^nH), where nH=slope factor using Excel-fit 4 software (Microsoft). IC50 values were derived from the inhibition curve and the affinity constant (Ki) values were calculated using the Cheng-Prussoff equation Ki=IC50/(1+[L]/KD) where [L] is the concentration of radioligand and KD is its dissociation constant at the receptor, derived from the saturation isotherm. All experiments were performed in duplicate and the mean±standard error (SEM) of the individual Ki values was calculated.
Consider `CN(Cc1ccc(C(F)(F)F)c(F)c1)[C@H]1CN(C(=O)c2ccc(C#N)cc2)C[C@@H]1c1ccc(Cl)c(Cl)c1` (racemic) [Example 6, 4-{(3SR,4RS)-3-(3,4-Dichloro-phenyl)-4-[(3-fluoro-4-trifluoromethyl-benzyl)-methyl-amino]-pyrrolidine-1-carbonyl}-benzonitrile], for which the Ki amounted to 20.9 nM. The result for `CN(Cc1ccc(C(F)(F)F)c(F)c1)[C@H]1CN(C(=O)c2cccc(C#N)c2)C[C@@H]1c1ccc(Cl)c(Cl)c1` (racemic) [Example 9, 3-{(3SR,4RS)-3-(3,4-Dichloro-phenyl)-4-[(3-fluoro-4-trifluoromethyl-benzyl)-methyl-amino]-pyrrolidine-1-carbonyl}-benzonitrile] reads 47.4 nM; that for `CN(Cc1ccc(C(F)(F)F)c(F)c1)[C@H]1CN(C(=O)c2ccc3c(c2)OCO3)C[C@@H]1c1ccc(Cl)c(Cl)c1` (racemic) [Example 17, Benzo[1,3]dioxol-5-yl-{(3SR,4RS)-3-(3,4-dichloro-phenyl)-4-[(3-fluoro-4-trifluoromethyl-benzyl)-methyl-amino]-pyrrolidin-1-yl}-methanone], 38.3 nM. Then `CN(Cc1ccc(C#N)c(F)c1)[C@H]1CN(C(=O)c2ccc(C#N)cc2)C[C@@H]1c1ccc(Cl)c(Cl)c1` (racemic) [Example 18, 4-({[(3RS,4SR)-1-(4-Cyano-benzoyl)-4-(3,4-dichloro-phenyl)-pyrrolidin-3-yl]-methyl-amino}-methyl)-2-fluoro-benzonitrile], with 42 nM. The result for `CN(Cc1ccc(C(F)(F)F)c(F)c1)[C@H]1CN(C(=O)c2ccc(C#N)cc2F)C[C@@H]1c1ccc(Cl)c(Cl)c1` (racemic) [Example 19, 4-{(3SR,4RS)-3-(3,4-Dichloro-phenyl)-4-[(3-fluoro-4-trifluoromethyl-benzyl)-methyl-amino]-pyrrolidine-1-carbonyl}-3-fluoro-benzonitrile] reads 12.9 nM. With `CN(Cc1ccc(C(F)(F)F)c(F)c1)[C@H]1CN(C(=O)c2cc(S(C)(=O)=O)ccc2F)C[C@@H]1c1ccc(Cl)c(Cl)c1` (racemic) [Example 20, {(3SR,4RS)-3-(3,4-Dichloro-phenyl)-4-[(3-fluoro-4-trifluoromethyl-benzyl)-methyl-amino]-pyrrolidin-1-yl}-(2-fluoro-5-methanesulfonyl-phenyl)-methanone], the Ki worked out at 41.7 nM. The result for `CN(Cc1ccc(C(F)(F)F)c(F)c1)[C@H]1CN(C(=O)c2ccc(S(C)(=O)=O)cc2)C[C@@H]1c1ccc(Cl)c(Cl)c1` (racemic) [Example 22, {(3SR,4RS)-3-(3,4-Dichloro-phenyl)-4-[(3-fluoro-4-trifluoromethyl-benzyl)-methyl-amino]-pyrrolidin-1-yl}-(4-methanesulfonyl-phenyl)-methanone] reads 30.2 nM; that for `Cc1cc(C(=O)N2C[C@H](c3ccc(Cl)c(Cl)c3)[C@@H](N(C)Cc3ccc(C(F)(F)F)c(F)c3)C2)ccc1C#N` (racemic) [Example 23, 4-{(3SR,4RS)-3-(3,4-Dichloro-phenyl)-4-[(3-fluoro-4-trifluoromethyl-benzyl)-methyl-amino]-pyrrolidine-1-carbonyl}-2-methyl-benzonitrile], 6.6 nM. The result for `CC(=O)c1ccc(C(=O)N2C[C@H](c3ccc(Cl)c(Cl)c3)[C@@H](N(C)Cc3ccc(C(F)(F)F)c(F)c3)C2)cc1` (racemic) [Example 24, 1-(4-{(3SR,4RS)-3-(3,4-Dichloro-phenyl)-4-[(3-fluoro-4-trifluoromethyl-benzyl)-methyl-amino]-pyrrolidine-1-carbonyl}-phenyl)-ethanone] reads 6.8 nM.

As to `Cc1ccc(C(=O)N2C[C@H](c3ccc(Cl)c(Cl)c3)[C@@H](N(C)Cc3ccc(C(F)(F)F)c(F)c3)C2)cn1` (racemic) [Example 25, {(3SR,4RS)-3-(3,4-Dichloro-phenyl)-4-[(3-fluoro-4-trifluoromethyl-benzyl)-methyl-amino]-pyrrolidin-1-yl}-(6-methyl-pyridin-3-yl)-methanone], the Ki worked out at 15.2 nM. Then `CN(Cc1ccc(C(F)(F)F)c(F)c1)[C@H]1CN(C(=O)c2ccc(C#N)nc2)C[C@@H]1c1ccc(Cl)c(Cl)c1` (racemic) [Example 26, 5-{(3SR,4RS)-3-(3,4-Dichloro-phenyl)-4-[(3-fluoro-4-trifluoromethyl-benzyl)-methyl-amino]-pyrrolidine-1-carbonyl}-pyridine-2-carbonitrile], with 14.8 nM; and `CN(Cc1ccc(C(F)(F)F)c(F)c1)[C@H]1CN(C(=O)c2ccc(N3CCOCC3)nc2)C[C@@H]1c1ccc(Cl)c(Cl)c1` (racemic) [Example 27, {(3SR,4RS)-3-(3,4-Dichloro-phenyl)-4-[(3-fluoro-4-trifluoromethyl-benzyl)-methyl-amino]-pyrrolidin-1-yl}-(6-morpholin-4-yl-pyridin-3-yl)-methanone], with 5.7 nM.

As to `CN(Cc1ccc(C(F)(F)F)c(F)c1)[C@H]1CN(C(=O)c2ccc(F)nc2)C[C@@H]1c1ccc(Cl)c(Cl)c1` (racemic) [Example 28, {(3SR,4RS)-3-(3,4-Dichloro-phenyl)-4-[(3-fluoro-4-trifluoromethyl-benzyl)-methyl-amino]-pyrrolidin-1-yl}-(6-fluoro-pyridin-3-yl)-methanone], the Ki came out at 35.6 nM.

Take `COc1ccc(C(=O)N2C[C@H](c3ccc(Cl)c(Cl)c3)[C@@H](N(C)Cc3ccc(C(F)(F)F)c(F)c3)C2)cn1` (racemic) [Example 29, {(3SR,4RS)-3-(3,4-Dichloro-phenyl)-4-[(3-fluoro-4-trifluoromethyl-benzyl)-methyl-amino]-pyrrolidin-1-yl}-(6-methoxy-pyridin-3-yl)-methanone]: the Ki worked out at 8.4 nM. The result for `CN(Cc1ccc(C(F)(F)F)c(F)c1)[C@H]1CN(C(=O)c2ccc(-n3cccn3)nc2)C[C@@H]1c1ccc(Cl)c(Cl)c1` (racemic) [Example 30, {(3SR,4RS)-3-(3,4-Dichloro-phenyl)-4-[(3-fluoro-4-trifluoromethyl-benzyl)-methyl-amino]-pyrrolidin-1-yl}-(6-pyrazol-1-yl-pyridin-3-yl)-methanone] reads 2.8 nM.

In the case of `Cc1cc(C(=O)N2C[C@H](c3ccc(Cl)c(Cl)c3)[C@@H](N(C)Cc3ccc(C(F)(F)F)c(F)c3)C2)ccn1` (racemic) [Example 33, {(3SR,4RS)-3-(3,4-Dichloro-phenyl)-4-[(3-fluoro-4-trifluoromethyl-benzyl)-methyl-amino]-pyrrolidin-1-yl}-(2-methyl-pyridin-4-yl)-methanone], the Ki came to 11.1 nM.

On to `CN(Cc1ccc(C(F)(F)F)c(F)c1)[C@H]1CN(C(=O)c2ccc(N3CCOCC3)cc2)C[C@@H]1c1ccc(Cl)c(Cl)c1` (racemic) [Example 38, {(3SR,4RS)-3-(3,4-Dichloro-phenyl)-4-[(3-fluoro-4-trifluoromethyl-benzyl)-methyl-amino]-pyrrolidin-1-yl}-(4-morpholin-4-yl-phenyl)-methanone], for which the Ki stood at 9 nM. Regarding `CN(Cc1ccc(C(F)(F)F)c(F)c1)[C@H]1CN(C(=O)c2ccc(-n3cncn3)cc2)C[C@@H]1c1ccc(Cl)c(Cl)c1` (racemic) [Example 40, {(3SR,4RS)-3-(3,4-Dichloro-phenyl)-4-[(3-fluoro-4-trifluoromethyl-benzyl)-methyl-amino]-pyrrolidin-1-yl}-(4-[1,2,4]triazol-1-yl-phenyl)-methanone], the Ki came out at 2.7 nM. Regarding `CN(Cc1ccc(C(F)(F)F)c(F)c1)[C@H]1CN(C(=O)c2ccc(-n3ccnc3)cc2)C[C@@H]1c1ccc(Cl)c(Cl)c1` (racemic) [Example 41, {(3SR,4RS)-3-(3,4-Dichloro-phenyl)-4-[(3-fluoro-4-trifluoromethyl-benzyl)-methyl-amino]-pyrrolidin-1-yl}-(4-imidazol-1-yl-phenyl)-methanone], the Ki was 10.7 nM.

As for `CN(Cc1ccc(C(F)(F)F)c(F)c1)[C@H]1CN(C(=O)c2ccc(N3CCCS3(=O)=O)cc2)C[C@@H]1c1ccc(Cl)c(Cl)c1` (racemic) [Example 42, {(3SR,4RS)-3-(3,4-Dichloro-phenyl)-4-[(3-fluoro-4-trifluoromethyl-benzyl)-methyl-amino]-pyrrolidin-1-yl}-[4-(1,1-dioxo-1-6-isothiazolidin-2-yl)-phenyl]-methanone], the inhibition constant (Ki) came to 33.5 nM.

Source of the values: patent publication US8293770B2, “Pyrrolidine derivatives as NK-3 receptor antagonists” (Hoffmann-La Roche Inc., priority 2008, dated 2012).
